row,SMILES,melting point
1,"CCCCS(=O)(=O)NC(=O)c1ccc2c(c1)n(Cc1ccc(Cl)cc1Cl)c(=O)n2C [Example 39, 6-(1-n-butanesulfonylcarbamoyl)-1-(2,4-dichlorobenzyl)-3-methyl-2-benzimidazolone]",358 to 360 °C
2,"Cc1cc(C(=O)NS(=O)(=O)c2ccccc2)c2oc(Cc3ccc(Cl)cc3Cl)c(C)c2c1 [Example 31-2, 7-(benzenesulfonylcarbamoyl)-2-(2,4-dichlorobenzyl)-3,5-dimethylbenzo[b]furan]",214 to 215 °C
3,"Cc1nc2ccc(C(=O)NS(=O)(=O)c3ccc(Br)s3)nc2n1Cc1ccc(Cl)cc1Cl [Example 65-5, 5-((5-bromothiophen-2-yl)sulfonylcarbamoyl)-3-(2,4-dichlorobenzyl)-2-methyl-3H-imidazo[4,5-b]pyridine]",168 to 169 °C
4,"CCCCCS(=O)(=O)NC(=O)c1ccc2sc(C)c(Cc3cccc(Cl)c3Cl)c2c1 [Example 2, 3-(2,3-dichlorobenzyl)-2-methyl-5-(n-pentanesulfonylcarbamoyl)benzo[b]thiophene]",196 to 197 °C
5,"Cc1nc2ccc(C(=O)NS(=O)(=O)/C=C/c3ccccc3)nc2n1Cc1ccc(Cl)cc1Cl [Example 65-3, (E)-3-(2,4-dichlorobenzyl)-2-methyl-5-[(2-phenylethenyl)sulfonylcarbamoyl]-3H-imidazo[4,5-b]pyridine]",192 to 194 °C
6,"Cc1nc2ccc(C(=O)NS(=O)(=O)/C=C/c3ccccc3)nc2n1Cc1ccc(Br)cc1Cl [Example 66-1, (E)-3-(4-bromo-2-chlorobenzyl)-2-methyl-5-[(2-phenylethenyl)sulfonylcarbamoyl]-3H-imidazo[4,5-b]pyridine]",204 to 205 °C
7,"Cc1nc2ccc(C(=O)NS(=O)(=O)c3ccc(Cl)s3)nc2n1Cc1ccc(-c2ccccc2)cc1Cl [Example 67-3, 3-(2-chloro-4-phenylbenzyl)-5-[(5-chlorothiophene-2-yl)sulfonylcarbamoyl]-2-methyl-3H-imidazo[4,5-b]pyridine]",210 to 212 °C
8,"CCCCS(=O)(=O)NC(=O)c1ccc2c(=O)n(Cc3ccc(Cl)cc3Cl)c(=O)n(C)c2c1 [Example 43, 7-(1-n-butanesulfonyl-carbamoyl)-3-(2,4-dichlorobenzyl)-1-methyl-2,4(1H,3H)-quinazolinedione]",212 to 214 °C
9,"CCCCCS(=O)(=O)NC(=O)c1ccc2nc(C)n(Cc3ccc(Cl)cc3Br)c2n1 [Example 13-1, 3-(2-bromo-4-chlorobenzyl)-2-methyl-5-(n-pentanesulfonylcarbamoyl)-3H-imidazo[4,5-b]pyridine]",167 to 168 °C
10,"CCCCCS(=O)(=O)NC(=O)c1ccc2nc(C)n(Cc3ccc4ccccc4c3Br)c2n1 [Example 10, 3-(1-bromo-2-naphthyl)methyl-2-methyl-5-(n-pentanesulfonylcarbamoyl)-3H-imidazo[4,5-b]pyridine]",200 to 201 °C
11,"CCCCCS(=O)(=O)NC(=O)c1ccc2nc(C)n(Cc3ccc(Cl)cc3Cl)c2n1 [Example 8-1, 3-(2,4-dichlorobenzyl)-2-methyl-5-(n-pentanesulfonylcarbamoyl)-3H-imidazo[4,5-b]pyridine]",174 to 175 °C
12,"CCCCCS(=O)(=O)NC(=O)c1ccc2nc(C)n(Cc3ccc(-c4ccccc4)cc3)c2n1 [Example 11, 2-methyl-5-(n-pentanesulfonyl-carbamoyl)-3-(4-phenylbenzyl)-3H-imidazo[4,5-b]pyridine]",170 to 171 °C
13,"CCCCCS(=O)(=O)NC(=O)c1ccc2nc(C)n(Cc3ccc(-c4ccccc4)cc3Cl)c2n1 [Example 9, 3-(2-chloro-4-phenylbenzyl)-2-methyl-5-(n-pentanesulfonylcarbamoyl)-3H-imidazo[4,5-b]pyridine]",155 to 156 °C
14,"CCCCOc1ccc(Cn2c(C)nc3ccc(C(=O)NS(=O)(=O)c4ccccc4)nc32)c(Cl)c1 [Example 80, 5-(benzenesulfonylcarbamoyl)-3-(4-(n-butoxy)-2-chlorobenzyl)-2-methyl-3H-imidazo[4,5-b]pyridine]",181 to 182 °C
15,"CCCCCS(=O)(=O)NC(=O)c1cc(C)c2nc(CC)n(Cc3ccc(Cl)cc3Cl)c2n1 [Example 15, 3-(2,4-dichlorobenzyl)-2-ethyl-7-methyl-5-(n-pentanesulfonylcarbamoyl)-3H-imidazo[4,5-b]pyridine]",178 to 180 °C
16,"CCCCS(=O)(=O)NC(=O)c1ccc2c(=O)n(CC)c(=O)n(Cc3ccc(Cl)cc3Cl)c2c1 [Example 42, 7-(1-n-butanesulfonyl-carbamoyl)-1-(2,4-dichlorobenzyl)-3-ethyl-2,4(1H,3H)-quinazolinedione]",212 to 214 °C
17,"Cc1nc2ccc(C(=O)NS(=O)(=O)c3ccccc3)nc2n1Cc1ccc(-c2ccccc2)cc1Cl [Example 29-1, 5-benzenesulfonylcarbamoyl-3-(2-chloro-4-phenylbenzyl)-2-methyl-3H-imidazo[4,5-b]pyridine]",204 to 214 °C
18,CCCCCS(=O)(=O)NC(=O)c1ccc2c(c1)N(Cc1ccc(Cl)cc1Cl)C(C)=NC2.Cl,184 to 186 °C

# The next lines start with the values.
row,melting point,SMILES
1,140 to 142 °C,"Cc1nc2ccc(C(=O)NS(=O)(=O)/C=C/c3ccccc3)nc2n1Cc1ccc(C(F)(F)F)cc1Cl [Example 109-1, (E)-3-(2-chloro-4-(trifluoromethyl)benzyl)-2-methyl-5-((2-phenylethenyl)sulfonylcarbamoyl)-3H-imidazo[4,5-b]pyridine]"
2,231 to 232 °C,"Cc1cc(C(=O)NS(=O)(=O)c2ccccc2)nc2c1nc(C)n2Cc1ccc(Br)cc1Cl [Example 121, 5-(Benzenesulfonylcarbamoyl)-3-(4-bromo-2-chlorobenzyl)-2,7-dimethyl-3H-imidazo[4,5-b]pyridine]"
3,225 to 227 °C,"Cc1cc(C(=O)NS(=O)(=O)/C=C/c2ccccc2)nc2c1nc(C)n2Cc1ccc(Br)cc1Cl [Example 106-2, (E)-3-(4-bromo-2-chlorobenzyl)-2,7-dimethyl-5-[(2-phenylethenyl)sulfonylcarbamoyl]-3H-imidazo[4,5-b]pyridine]"
4,167 to 168 °C,"CCc1ccc(Cn2c(C)nc3ccc(C(=O)NS(=O)(=O)c4ccccc4)nc32)c(Cl)c1 [Example 70-2, 5-(benzenesulfonylcarbamoyl)-3-(2-chloro-4-ethylbenzyl)-2-methyl-3H-imidazo[4,5-b]pyridine]"
5,169 to 170 °C,"CSc1ccc(Cn2c(C)nc3ccc(C(=O)NS(=O)(=O)c4ccc(Br)s4)nc32)c(Cl)c1 [Example 150, 3-[2-chloro-4-(methylthio)benzyl]-5-[(5-bromothiophen-2-yl)sulfonylcarbamoyl]-2-methyl-3H-imidazo[4,5-b]pyridine]"
6,205 to 207 °C,"Cc1nc2ccc(C(=O)NS(=O)(=O)c3ccc(Br)s3)nc2n1Cc1ccc(-c2ccccc2)cc1Cl [Example 67-5, 5-[(5-bromothiophen-2-yl)sulfonylcarbamoyl]-3-(2-chloro-4-phenylbenzyl)-2-methyl-3H-imidazo[4,5-b]pyridine]"
7,151 to 152 °C,"COc1ccc(Cn2c(C)nc3ccc(C(=O)NS(=O)(=O)c4ccccc4)nc32)c(Cl)c1 [Example 78, 5-(benzenesulfonylcarbamoyl)-3-(2-chloro-4-methoxybenzyl)-2-methyl-3H-imidazo[4,5-b]pyridine]"
8,138 to 139 °C,"CCCCCS(=O)(=O)NC(=O)c1ccc2nc(C)n(Cc3ccc(CC)cc3Cl)c2n1 [Example 70-1, 3-(2-chloro-4-ethylbenzyl)-2-methyl-5-(1-pentanesulfonylcarbamoyl)-3H-imidazo[4,5-b]pyridine]"
9,183 to 184 °C,"Cc1nc2ccc(C(=O)NS(=O)(=O)c3ccccc3)nc2n1Cc1ccc(CC(C)C)cc1Cl [Example 74, 5-(benzenesulfonylcarbamoyl)-3-(2-chloro-4-isobutylbenzyl)-2-methyl-3H-imidazo[4,5-b]pyridine]"
10,257 to 260 °C,"CNC(=O)c1ccc(Cn2c(C)nc3ccc(C(=O)NS(=O)(=O)c4ccccc4)nc32)c(Cl)c1 [Example 120, 5-(Benzenesulfonylcarbamoyl)-3-(2-chloro-4-(methylcarbamoyl)benzyl)-2-methyl-3H-imidazo[4,5-b]pyridine]"
11,155 to 160 °C,"Cc1nc2ccc(C(=O)NS(=O)(=O)c3ccccc3)nc2n1Cc1ccc(C(=O)O)cc1Cl [Example 116, 5-(benzenesulfonylcarbamoyl)-3-(4-carboxy-2-chlorobenzyl)-2-methyl-3H-imidazo[4,5-b]pyridine]"
12,241 to 242 °C,"Cc1cc(C(=O)NS(=O)(=O)c2ccc(Cl)s2)nc2c1nc(C)n2Cc1ccc(-c2ccccc2)cc1Cl [Example 185, 3-(2-chloro-4-phenylbenzyl)-5-[(5-chlorothiophen-2-yl)sulfonylcarbamoyl]-2,7-dimethyl-3H-imidazo[4,5-b]pyridine]"
13,210 to 211 °C,"CCCCCS(=O)(=O)NC(=O)c1cc(C)c2nc(C)n(Cc3ccc4ccccc4c3Br)c2n1 [Example 104-1, 3-(1-bromonaphthalen-2-ylmethyl)-2,7-dimethyl-5-(pentanesulfonylcarbamoyl)-3H-imidazo[4,5-b]pyridine]"
14,175 to 176 °C,"CSc1ccc(Cn2c(C)nc3ccc(C(=O)NS(=O)(=O)/C=C/c4ccccc4)nc32)c(Cl)c1 [Example 148, 3-(2-chloro-4-(methylthio)benzyl)-2-methyl-5-(E)-[(2-phenylethenyl)sulfonylcarbamoyl]-3H-imidazo[4,5-b]pyridine]"
15,225 to 226 °C,"Cc1nc2ccc(C(=O)NS(=O)(=O)c3ccccc3)nc2n1Cc1ccc(-c2cccs2)cc1Cl [Example 68, 5-(benzenesulfonylcarbamoyl)-3-[2-chloro-4-(thiophen-2-yl)benzyl]-2-methyl-3H-imidazo[4,5-b]pyridine]"

# Source: patent US6911469B2, “Sulfonamide compounds and pharmaceutical use thereof” (Fujisawa Pharmaceutical Co., Ltd., priority 1997, dated 2005)
